# Tests used:
# [1] = Therapeutic index, ratio of IC50 for HEK293 cells to IC50 for human HT-29 cells; type: cell-based; conditions: HEK293 cells versus HT-29 cells, read-out: Ratio IC50
# [2] = system: MCF7; assay: Cytotoxicity against human MCF7 cells assessed as reduction in cell growth after 3 days by MTT assay; type: functional, cell-based; conditions: MCF7, 72 h
# [3] = system: HT-29; assay: Cytotoxicity against human HT-29 cells assessed as reduction in cell growth after 3 days by MTT assay; type: functional, cell-based; conditions: HT-29, 72 h
# [4] = Therapeutic index, ratio of IC50 for HEK293 cells to IC50 for human MCF7 cells; type: cell-based; conditions: HEK293 cells versus MCF7 cells, read-out: Ratio IC50
# [5] = system: HEK293; assay: Cytotoxicity against HEK293 cells assessed as reduction in cell growth after 3 days by MTT assay; type: cell-based; conditions: Homo sapiens, HEK293, 72 h
Structure (SMILES),selectivity ratio [1],IC50 [2] [µg/mL],IC50 [3] [µg/mL],selectivity ratio [4],IC50 [5] [µg/mL]
COc1ccc(-c2ccccc2N)c(OC)c1,> 2,56,56,> 2,> 100
Nc1ccccc1-c1ccccc1O,1.2,56,44,1,54.1
COc1ccc(-c2cccc(O)c2)c(OC)c1,0.5,50.2,54,0.6,28
Oc1ccc(-c2ccc(O)cc2)cc1,0.4,17.8,13.9,0.3,5.1
COc1ccc(-c2ccc(O)cc2)cc1,< 0.1,53,> 100,< 0.1,2
COc1ccc(-c2ccccc2O)cc1OC,< 0.2,55,> 100,0.4,23
Nc1ccccc1-c1ccc(O)cc1,1,44.3,51,1.1,50
Nc1ccc(-c2ccccc2)cc1 [BIPHENYL-4-AMINE],,1.4,> 100,> 69,> 100
Nc1cccc(-c2ccccc2)c1,1.3,60,42,0.9,54
COc1ccc(-c2ccccc2)cc1OC,0.6,45,41,0.6,26
Oc1cccc(-c2ccccc2)c1,0.9,27.4,28,0.9,25
COc1ccccc1-c1ccc(O)cc1,0.9,55,49,0.8,44
Nc1ccc(-c2ccccc2O)cc1,1.2,52,27.3,0.6,31
COc1cccc(-c2ccccc2O)c1,1.1,43,35,0.9,39
Oc1ccccc1-c1ccccc1 [2-PHENYLPHENOL],0.6,51,55,0.6,31.4
COc1ccc(-c2cccc(N)c2)c(OC)c1,0.6,> 100,49,< 0.3,29.2
COc1ccc(-c2ccccc2)c(OC)c1,0.5,> 100,55.2,< 0.3,27
Nc1ccc(-c2ccc(O)cc2)cc1,1.1,49.9,56,1.2,62
COc1ccccc1-c1ccccc1,1,1.6,51,33,52
COc1ccc(-c2ccccc2O)cc1,0.9,42,47,1,44
Nc1cccc(-c2ccccc2O)c1,1,28,49,1.7,47
COc1ccc(-c2ccccc2)cc1,0.4,> 100,45,< 0.2,17
COc1ccc(-c2cccc(O)c2)cc1OC,0.8,48,29,0.5,23.1
Nc1cccc(-c2cccc(O)c2)c1,0.9,99,54,0.5,50.1
